This is an account of results in patent US20240368552A1, “PRE-EPICARDIAL CELLS AND USES THEREOF” (The General Hospital Corporation, priority 2021, published 2024).

Common to all, as to assay type: cell-based, human
One assay deals with ventricular-CMs. In words: IGF signaling in PEC-induced ventricular-CM proliferation (IGF1R inhibition assay, IGF2 dose-response).
For the next assay, the system named is PECs. Kind of assay: Stimulation of epithelial-mesenchymal transition in PECs. Particulars: for PECs CD90 positive: 6 days treatment, flow cytometry; for PEC phenotype (ZO1, WT1, morphology): immunofluorescence, extended culture / 6 days. On the procedure: Stimulation of epithelial-mesenchymal transition in PECs. Day 7 PECs were seeded at 100,000 cells/well on 24-well-plate pre-coated with 0.1% gelatin, and allowed to attach overnight in basal medium (BM) consisted of DMEM/F12 supplemented with […] of Albumax (Gibco, Grand Island, NY), 1×ITS (Gibco, Grand Island, NY), 60 μg/ml ascorbic acid (Sigma Aldrich, St. Louis, MO). 1 μM of ROCK inhibitor Y27632 (Tocris Bioscience, Bristol, UK) was added to facilitate PEC attachment for 24 h. Then, PECs were expanded to full confluency in the BM with 2 μM SB431542 (Stemgent, San Diego, CA) but without AlbuMAX II (Gibco, Grand Island, NY), for 3-4 days. EMT were initiated by adding 5 ng/ml TGFβ (R&D system, Minneapolis, MN) for the initial 3 days and 10 ng/ml bFGF (PeproTech, Rocky Hill, NJ) for the subsequent 3 days or just bFGF alone, up to 6 days. Controls were epicardial cells in basal medium or with addition of 2 μM SB431542 (Stemgent, San Diego, CA).
(§1) Quantitative PCR. Cells were lysed with RT buffer and total RNA was purified using RNeasy® Plus Mini kit (Qiagen, Hilden, Germany) which was reverse transcribed to cDNA using Superscript IV VILO Master Mix (Gibco, Grand Island, NY) and ran on Bio-rad T100™ Thermal Cycler according to manufacturer's protocol. Quantitative PCR was performed on StepOnePlus Real-time PCR system (Applied Biosystems, Foster City, CA) after mixing cDNA with Taqman Gene Expression Master Mix (Cat #: 4369016) and gene Taqman probe (Applied Biosystems, Foster City, CA) which can be found in Table 1. All gene expressions were normalized to housekeeping gene beta-actin and presented as log 2fold change (delta-delta CT).
Flow cytometry. Cells were dissociated using trypsin, pelleted by centrifugation at 300 g for 5 min, and fixed with Fixation/Permeabilization Solution Kit according to manufacturer's protocol (BD Biosciences, San Diego, CA). Cells were washed with 2 times of 10% BD Perm/Wash Buffer (BD Biosciences, San Diego, CA) to remove fixative prior to staining. Samples were incubated with primary antibody diluted in BD Perm/Wash Buffer at 4° C. for 45 min. To remove excessive primary antibody, samples were spun at 250 g for 5 min and washed once with Perm/Wash buffer prior to labelling with Alexa Fluor 488 secondary antibody (Molecular Probes Eugene, OR) at 1:500 for 30 min. All samples were washed once with BD Perm/Wash Buffer prior to analysis with BD Accuri, BD FACS LSR Flow Cytometer (BD Biosciences, San Diego, CA) or NovoCyte Flow Cytometer (ACEA Biosciences, San Diego, CA). All flow cytometric analyses were performed using FlowJo 10.5.0 software.
Immunofluorescence labelling and microscopy (cells, spheres, aggregates). Cultured cells were fixed with cold methanol at 4° C. for 15 min, and then washed with PBS. CM-spheres, PEC-Spheres, and cardiac aggregates were fixed overnight with 4% paraformaldehyde, embedded in Histogel™ (Thermo Scientific, Kalamazoo, MI), dehydrated, and embedded in paraffin. Sections were cut at 5 μm, deparaffinized, and treated with a heat-mediated antigen retrieval technique that included a 20-min boilin 0.01 M citrate buffer (pH 7.0). Both cells and histological sections were labelled with primary antibodies (Table 1) overnight at 4° C. Donkey anti rabbit AlexaFluor 488 and donkey anti-mouse AlexaFluor 546 and 647 (Molecular Probes Eugene, OR) were used as secondary antibodies at 1:500 and nuclei were counterstained with DAPI (Sigma Aldrich, St. Louis, MO). All labelled cells were visualized using Nikon Eclipse Ti fluorescence microscope (Nikon Instruments, Melville, NY), and processed with NIS element imaging software or ImageJ.

For a further assay, the system named is hiPSCs (BJR-iPS cells). Kind of assay: Lateral plate mesoderm (LPM) induction from hiPSCs with CHIR, flow cytometry and RT-PCR. On the procedure:
HiPSC culture, maintenance and differentiation. Human BJR-iPS cells (hiPSCs) were obtained from Harvard Stem Cell Institute, and maintained in MTeSR medium (STEMCELL Technologies). hiPSCs were passaged with ReleaSR (STEMCELL Technologies, Cambridge, MA) and plated at 1:20 ratio every 7 days onto […] pre-coated with growth factor reduced (GFR)-Matrigel (Corning, Tewksbury, MA). Briefly, hiPSCs were seeded at 200,000 cells/cm^2 onto a GFR-Matrigel-coated plate and maintained in MTeSR medium for 4-5 days. To generate the lateral plate mesoderm (LPM), the cells were treated with 12 μM Stemolecule™ CHIR99021 (Stemgent, San Diego, CA) in differentiation basal medium consisting of RPMI medium supplemented with B27 without insulin (Gibco, Grand Island, NY) (RPMI-INS,) for 48 h. Then, the medium was replaced with RPMI-INS for 24 h. Next, the culture was incubated with 5 μM of Stemolecule™ Wnt inhibitor IWP-4 (Stemgent, San Diego, CA) in RPMI-INS for 48 hr before switching it back to RPMI-INS, for additional 48 hr. After that, the medium was changed to RPMI medium supplemented with insulin-containing B27, and refreshed every 2 days for long term maintenance. For PEC differentiation, LPM cells at day 3 were treated with RPMI-INS supplemented 50 ng/ml bone morphogenic protein (BMP) 4 (PeproTech, Rocky Hill, NJ), 5 ng/ml vascular endothelial growth factor (VEGF; PeproTech, Rocky Hill, NJ) and 4 μM retinoic acid (RA; Stemgent, San Diego, CA) in RPMI-INS and changed every 2 days for 96 hr. PECs were dissociated using collagenase I (Sigma Aldrich, St. Louis, MO) and 1×TrypLE Express Enzyme (Gibco, Grand Island, NY), and maintained in complete PEC medium (PECM) consisted of DMEM/F12 supplemented with 1×insulin-selenium-transferrin (ITS; Gibco, Grand Island, NY), 5 ng/ml VEGF (PeproTech, Rocky Hill, NJ), 10 μM retinol, 4 μM RA (Stemgent, San Diego, CA) and 60 μg/ml ascorbic acid (Sigma). For plating, 1 μM of ROCK inhibitor Y-27632 dihydrochloride (Tocris Bioscience, Bristol, UK) was added for 24 h to facilitate cell attachment, after which medium was switched to PECM. For PEC maintenance, differentiated PEC were passaged and seeded at 10,000/well of 24 well-plate and maintained using SB medium consisted of DMEM/F12 supplemented with 0.4 mg/ml of Albumax (Gibco, Grand Island, NY), 1×ITS (Gibco, Grand Island, NY), 60 μg/ml ascorbic acid (Sigma Aldrich, St. Louis, MO), with 2 μM TGFβ inhibitor SB431542 (Tocris Bioscience, Bristol, UK). […]
Quantitative PCR. […] Quantitative PCR was performed on StepOnePlus Real-time PCR system (Applied Biosystems, Foster City, CA) after mixing cDNA with Taqman Gene Expression Master Mix (Cat #: 4369016) and gene Taqman probe (Applied Biosystems, Foster City, CA) which can be found in Table 1. […]

For the next assay, the system named is IGF2. In words: Inhibition of RA signaling in PEC in transwell (IGF2 qPCR). Particulars: 5 μM, 6 days, vs control without BMS. On the procedure: as §1
Inhibition of RA signaling in PEC in Transwell: PECs were seeded at 2.5×10^5 cells/well in 24 well-plate while 2.5×10^5 cells VM were cultured in the transwell insert. Both cells were cultured using PECM:RPMI-INS medium, with […] (5 μM) only present in lower compartment with PECs, for 6 days. IGF2 RNA was harvested from PECs for qPCR analysis.

For a further assay, the system named is hiPSC-derived CMs. Kind of assay: Differentiation of ventricular-like CM population with BMS-189453. Particulars: day 30, treated 96 h starting at day 3, vs control. On the procedure: as §1
Differentiation of Ventricular-like CM population. Human iPS cells were maintained and differentiated to LPM with Stemolecule™ CHIR99021 for 48 h. BMS-189453 (1-2 μM, Sigma Aldrich, St. Louis, MO) was supplemented together with Stemolecule™ Wnt inhibitor IWP-4 (Stemgent, San Diego, CA) in RPMI-INS for 48 h starting day 3. Then, BMS-189453 treatment was continued after additional 48 h after withdrawal of Stemolecule™ Wnt inhibitor IWP-4 in RPMI-INS until day 9. Culture medium was then switched to RPMI supplemented with insulin containing B27 to further maintain the differentiated ventricular myocytes until use.

Setting [1] is: 6 days, RT-PCR vs SB-treated PECs.
[2] abbreviates: 48 h CHIR treatment, day 3, RT-PCR vs hiPSC.
Setting [3] is: day 3, 48 h CHIR treatment, flow cytometry.

On to “IGF2: IGF2 protein added to ventricular CMs”, for which the “cTnT+ EdU+ CMs” value with ventricular-CMs (IGF2 addition, dose-response) was “significantly increased”.

Consider `NC(=O)c1ccc(-c2nc(-c3ccc4c(c3)OCO4)c(-c3ccccn3)[nH]2)cc1` [SB, SB431542], for which, in the assay on PECs, the “PECs CD90 positive” value was found to be 1.1±0.1% and the “PEC phenotype (ZO1, WT1, morphology)” value is “maintain the cuboidal epithelial phenotype with defined ZO1 expression”.

Consider TGFβ, for which, in the assay with PECs, the “PECs CD90 positive” value came out at 28.7±3.5%; the “PEC phenotype (ZO1, WT1, morphology)” value was “ZO1 disarrangement, cell and nucleus enlargement, and WT1-expression loss”. In addition, the “ACTA2, DDR2 and POSTN expression” value in the assay on PECs (setting [1]) is on record as “significant increases”.

As for “bFGF: bFGF growth factor (PeproTech), 10 ng/ml”, in the assay with PECs, the “PECs CD90 positive” value stood at 95.3±0.7%; the “PEC phenotype (ZO1, WT1, morphology)” value was “ZO1 disarrangement, cell and nucleus enlargement, and WT1-expression loss”. Moreover, in the assay on PECs (setting [1]), the “ACTA2, DDR2 and POSTN expression” value is on record as “significant increases”; the SNAI1 expression entry is on record as “upregulation”; the “fibroblast markers TCF21 and VIM expression” value was “significant upregulation”.

On to `C[C@]1(O)C[C@@H](c2nc(-c3ccc4ccc(-c5ccccc5)nc4c3)c3c(N)nccn32)C1` [Linsitinib], for which, in the assay on ventricular-CMs (treated with 1 μM, 3 days, PEC coculture), the “cTnT+ EdU+ CMs” value turned out to be 7.0±0.4%.

With `Cc1c[nH]c(-c2cnc(NCCNc3ccc(C#N)cn3)nc2-c2ccc(Cl)cc2Cl)n1` [CHIR, CHIR99021], in the assay on hiPSCs (BJR-iPS cells) (setting [2]), the “pluripotency markers (OCT3/4, SOX2, NANOG) expression” value was “significant downregulation”; the “primitive streak, lateral plate mesoderm and cardiac progenitor marker expression” value was “significant upregulation”. In the assay with hiPSCs (BJR-iPS cells) (setting [3]), the “LPM progenitors expressing KDR” value is recorded as 88.0±3.6% and the “LPM progenitors expressing PDGFRA” value is reported as 73.7±4.3%.

As for `CC1(C)CC=C(c2ccccc2)c2cc(/C=C/c3ccc(C(=O)O)cc3)ccc21` [BMS, BMS189453], in the assay on IGF2, the “IGF2 expression in co-cultured PECs” value is given as “significantly reduced”. Also, the “ventricular genes MYH7 and MYL2 expression” value in the assay on hiPSC-derived CMs was “significantly upregulated”.
